The source of these data is patent US20250340563A1, “FUSED PYRIDAZINE DERIVATIVES AS NLRP3 INHIBITORS” (Takeda Pharmaceutical Company Limited, priority 2022, published 2025).

Assay [1] deals with NF-κB pathway. The assay can be described thus: TNF-α assay in IFN-γ-differentiated, LPS-stimulated THP-1 cells (ELISA). Particulars: Homo sapiens, 50 ng/mL LPS, 3 hours. It counts as cell-based. Here is the method: Monocytic THP-1 cells (ATCC: TIB-202) are maintained in accordance with the provider's instructions in RPMI media (Life Technologies, Cat #A10491-01); RPMI is supplemented with 10% heat inactivated fetal bovine serum (Hyclone Cat #SH30396.03). The cells are differentiated into macrophages by the addition of 25 ng/mL IFN-γ for 24 hours at 37° C./5% CO2. Media is exchanged with fresh media with no FBS. The cells are plated at 40,000 cells per well in 384-well flat-bottom cell culture plates (Costar 3764) containing compounds (added in 1:1000) in a 1:3.16 serial dilution series in DMSO and are incubated for 30 minutes at 37° C./5% CO2. The NF-κB pathway is activated with the addition of 50 ng/mL LPS and the cells are incubated for 3 hours at 37° C./5% CO2. At the end of the incubation period, supernatant (40 μL) is removed, and […] are monitored using an ELISA (Human TNF-α ELISA, R&D systems, Cat #DY210) according to the manufacturer's instructions.
The IC50 values are calculated from a plot of percentage of inhibition versus the inhibitor concentration by a logistics curve fit according to: Y=[Bottom+(Top−Bottom)]/(1+10^[(Log IC50−X)·Hill Slope], where Y is the % inhibition at the inhibitor concentration, X, “Bottom” is the lowest inhibition value, i.e. 0%, “Top” is the maximum inhibition value, i.e. 100%, and the “Hill Slope” describes the slope of the sigmoidal curve between the “Bottom” and “Top” values. The curve fitting was conducted with internally developed software.

For assay [2], the target named is NLRP3 inflammasome (Homo sapiens, UniProt Q96P20). The assay can be described thus: IL-1β assay in IFN-γ-differentiated, LPS-primed, ATP-activated THP-1 cells (ELISA). It is filed as cell-based. Particulars: 50 ng/mL LPS priming, 2.5 mM ATP activation, 2 hours. A digest of the protocol: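 THP-1 cells differentiated with 25 ng/mL IFN-γ for 24 h, then primed with 50 ng/mL LPS for 24 h in serum-free medium. After 30 min compound preincubation (1:3.16 dilution series), inflammasome activated with 2.5 mM ATP for 2 h at 37 °C. Supernatant IL-1β measured by ELISA; IC50 from logistic fit of % inhibition.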
NLRP3 inflammasome, sequence (Q96P20 whole entry): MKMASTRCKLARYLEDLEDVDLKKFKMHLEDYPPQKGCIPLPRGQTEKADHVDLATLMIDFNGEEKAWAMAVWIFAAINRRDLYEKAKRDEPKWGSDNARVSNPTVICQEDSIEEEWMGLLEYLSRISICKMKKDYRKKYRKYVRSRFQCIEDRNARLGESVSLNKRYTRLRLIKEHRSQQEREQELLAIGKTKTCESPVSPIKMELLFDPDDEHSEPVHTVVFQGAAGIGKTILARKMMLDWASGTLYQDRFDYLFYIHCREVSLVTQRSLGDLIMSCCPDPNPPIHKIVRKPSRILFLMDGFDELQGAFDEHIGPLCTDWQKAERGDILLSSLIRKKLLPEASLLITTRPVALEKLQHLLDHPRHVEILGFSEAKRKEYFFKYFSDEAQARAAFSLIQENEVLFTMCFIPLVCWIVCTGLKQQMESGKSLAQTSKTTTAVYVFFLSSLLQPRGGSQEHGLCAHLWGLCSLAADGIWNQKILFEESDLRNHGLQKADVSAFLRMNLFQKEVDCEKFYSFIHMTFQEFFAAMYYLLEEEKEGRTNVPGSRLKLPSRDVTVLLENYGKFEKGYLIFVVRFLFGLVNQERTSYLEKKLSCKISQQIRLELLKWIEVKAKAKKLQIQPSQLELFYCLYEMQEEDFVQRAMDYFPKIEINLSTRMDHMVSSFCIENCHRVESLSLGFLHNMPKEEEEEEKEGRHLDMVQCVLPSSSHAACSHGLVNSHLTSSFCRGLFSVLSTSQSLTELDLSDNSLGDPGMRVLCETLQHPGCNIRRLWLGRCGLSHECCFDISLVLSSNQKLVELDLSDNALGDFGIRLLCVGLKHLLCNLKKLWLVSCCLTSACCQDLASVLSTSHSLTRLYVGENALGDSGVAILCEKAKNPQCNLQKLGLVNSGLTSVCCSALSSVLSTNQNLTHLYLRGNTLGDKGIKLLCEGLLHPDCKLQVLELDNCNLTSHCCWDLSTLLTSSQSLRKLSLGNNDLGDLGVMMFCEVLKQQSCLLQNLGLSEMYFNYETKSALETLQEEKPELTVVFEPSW
On the technique in general: In an ELISA, binding on a coated surface is turned into a signal by an enzyme label.

Usually IC50 stands for the point on the concentration scale where inhibition reaches its midpoint.

Structures are written as SMILES.

In the case of `CN1C[C@H](F)C[C@@H](Nc2nnc(-c3ccc(Cl)cc3F)c3c2COCC3)C1` [Example 217, 1-(4-chloro-2-fluorophenyl)-N-((3R,5R)-5-fluoro-1-methylpiperidin-3-yl)-7,8-dihydro-5H-pyrano[3,4-d]pyridazin-4-amine], the IC50 is above 30 µM in assay [1] and 0.876 µM in assay [2].

In the case of `CN1CCCC(Nc2nnc(-c3ccc(Cl)cc3)c3ccccc23)C1` (stereo not shown) [Example 113, 4-(4-chlorophenyl)-N-(1-methylpiperidin-3-yl)phthalazin-1-amine], the values for the IC50 in assay [1] and in assay [2] were above 30 µM and 0.047 µM, respectively.

`COc1ccc(-c2nnc(N[C@@H]3C[C@@H](F)CN(C(C)C)C3)c3ccccc23)cc1` [Example 196, N-((3R,5R)-5-fluoro-1-isopropylpiperidin-3-yl)-4-(4-methoxyphenyl)phthalazin-1-amine]: the IC50 in assay [1] was above 30 µM; in assay [2] it was 0.012 µM.

With `CN1C[C@H](F)C[C@@H](Nc2nnc(-c3ccc(F)cc3O)c3c2CCOC3)C1` [Example 203, 5-fluoro-2-(1-(((3R,5R)-5-fluoro-1-methylpiperidin-3-yl)amino)-7,8-dihydro-5H-pyrano[3,4-d]pyridazin-4-yl)phenol], the IC50 is above 30 µM in assay [1] and 0.032 µM in assay [2].

On to `CN1CCCC(Nc2nnc(-c3ccc(C(F)F)cc3)c3ccccc23)C1` (stereo not shown) [Example 21, 4-(4-(difluoromethyl)phenyl)-N-(1-methylpiperidin-3-yl)phthalazin-1-amine], for which the IC50 in assay [1] is above 30 µM; in assay [2], 0.075 µM.

For the compound `O[C@H]1C[C@@H](Nc2nnc(-c3ccc(Cl)cc3)c3ccccc23)C1` [Example 122, cis-3-((4-(4-chlorophenyl)phthalazin-1-yl)amino)cyclobutan-1-ol], the IC50 in assay [1] is above 30 µM; in assay [2], 2.3 µM.

With `CCN1CCCC(Nc2nnc(-c3ccc(OC)cc3)c3ccccc23)C1` (stereo not shown) [Example 171, N-(1-ethylpiperidin-3-yl)-4-(4-methoxyphenyl)phthalazin-1-amine], the IC50 in assay [1] was above 30 µM; in assay [2], 0.068 µM.

Consider `Cc1cc(Cl)ccc1-c1nnc(NC2CCCN(C)C2)c2ccccc12` (stereo not shown) [Example 46, 4-(4-chloro-2-methylphenyl)-N-(1-methylpiperidin-3-yl)phthalazin-1-amine], for which the results for the half-maximal inhibitory concentration (IC50) in assay [1] and in assay [2] were above 30 µM and 0.113 µM, respectively.

Regarding `COc1ccc(-c2nnc(N[C@@H]3C[C@@H](F)CN(C)C3)c3c2CCOC3)c(C(F)F)c1` [Example 206, 1-(2-(difluoromethyl)-4-methoxyphenyl)-N-((3R,5R)-5-fluoro-1-methylpiperidin-3-yl)-7,8-dihydro-5H-pyrano[3,4-d]pyridazin-4-amine], the IC50 in assay [1] is above 30 µM; in assay [2], 0.425 µM.

Take `CN1C[C@H](F)C[C@@H](Nc2nnc(-c3ccc(Cl)cc3)c3ccncc23)C1` [Example 189, 1-(4-chlorophenyl)-N-((3R,5R)-5-fluoro-1-methylpiperidin-3-yl)pyrido[3,4-d]pyridazin-4-amine]: the IC50 in assay [1] was above 30 µM; in assay [2], 0.11 µM.

As for `Cc1cc2c(NC3CCCN(C)C3)nnc(-c3ccc(Cl)cc3)c2cn1` (stereo not shown) [Example 81, 4-(4-chlorophenyl)-7-methyl-N-(1-methylpiperidin-3-yl)pyrido[3,4-d]pyridazin-1-amine], the IC50 in assay [1] was above 30 µM; in assay [2] it was 0.067 µM.

With `Oc1cccc(Nc2nnc(-c3ccc(C4CC4)cc3)c3ccccc23)c1` [Example 19, 3-((4-(4-cyclopropylphenyl)phthalazin-1-yl)amino)phenol], the figures for the IC50 in assay [1] and in assay [2] were 7.76 µM and 1.09 µM, respectively.

`CN1CCC[C@@H](Nc2nnc(-c3ccc(Cl)cc3)c3ccccc23)C1` [Example 139, (R)-4-(4-chlorophenyl)-N-(1-methylpiperidin-3-yl)phthalazin-1-amine]: the concentration for half-maximal inhibition (IC50) in assay [1] was above 30 µM; in assay [2], 0.031 µM.

As for `CN1CCCC(Nc2nnc(-c3ccc(C4CC4)cc3)c3ccccc23)C1` (stereo not shown) [Example 16, 4-(4-cyclopropylphenyl)-N-(1-methylpiperidin-3-yl)phthalazin-1-amine], the IC50 in assay [1] was above 30 µM; in assay [2] it was 0.112 µM.

For the compound `COc1ccc(-c2nnc(N[C@@H]3C[C@@H](F)CN(C)C3)c3c2CCOC3)c(F)c1` [Example 215, N-((3R,5R)-5-fluoro-1-methylpiperidin-3-yl)-1-(2-fluoro-4-methoxyphenyl)-7,8-dihydro-5H-pyrano[3,4-d]pyridazin-4-amine], the IC50 in assay [1] is above 30 µM; in assay [2], 0.16 µM.

Turning to `Cc1ccc(-c2nnc(NC34CCC(O)(CC3)C4)c3c2COCC3)c(O)c1` [Example 232, 4-((4-(2-hydroxy-4-methylphenyl)-7,8-dihydro-5H-pyrano[3,4-d]pyridazin-1-yl)amino)bicyclo[2.2.1]heptan-1-ol], the IC50 is above 30 µM in assay [1] and 0.155 µM in assay [2].

Consider `COc1ccc(-c2nnc(Nc3cccc(O)c3)c3cnccc23)cc1` [Example 40, 3-((1-(4-methoxyphenyl)pyrido[3,4-d]pyridazin-4-yl)amino)phenol], for which the IC50 in assay [1] is above 30 µM; in assay [2] it was 3.02 µM.

As to `FCCN1CCCC(Nc2nnc(-c3ccc(Cl)cc3)c3ccccc23)C1` (stereo not shown) [Example 140, 4-(4-chlorophenyl)-N-(1-(2-fluoroethyl)piperidin-3-yl)phthalazin-1-amine], the figures for the IC50 in assay [1] and in assay [2] were above 30 µM and 0.075 µM, respectively.

With `Clc1ccc(-c2nnc(NC3CCCN(C4CC4)C3)c3cnccc23)cc1` (stereo not shown) [Example 88, 1-(4-chlorophenyl)-N-(1-cyclopropylpiperidin-3-yl)pyrido[3,4-d]pyridazin-4-amine], the figures for the IC50 in assay [1] and in assay [2] were above 30 µM and 0.008 µM, respectively.

As for `COc1ccc(-c2nnc(N[C@@H]3C[C@@H](F)CN(C)C3)c3c2COCC3)c(C(F)(F)F)c1` [Example 210, N-((3R,5R)-5-fluoro-1-methylpiperidin-3-yl)-4-(4-methoxy-2-(trifluoromethyl)phenyl)-7,8-dihydro-5H-pyrano[3,4-d]pyridazin-1-amine], the IC50 in assay [1] was above 30 µM; in assay [2] it was 0.757 µM.

For the compound `CN1C[C@H](F)C[C@@H](Nc2nnc(-c3ccccc3O)c3ccncc23)C1` (relative stereo) [Example 172, 2-(4-((trans-5-fluoro-1-methylpiperidin-3-yl)amino)pyrido[3,4-d]pyridazin-1-yl)phenol], the IC50 in assay [1] was above 30 µM; in assay [2] it was 0.02 µM.

Consider `CN1CCC[C@@H](Nc2nnc(-c3ccc(F)cc3O)c3ccncc23)C1` [Example 93, (R)-5-fluoro-2-(4-((1-methylpiperidin-3-yl)amino)pyrido[3,4-d]pyridazin-1-yl)phenol], for which the IC50 in assay [1] is above 30 µM; in assay [2] it was 0.03 µM.

As to `CN1CC2CC2(Nc2nnc(-c3ccc(Cl)cc3)c3ccccc23)C1` (stereo not shown) [Example 152, 4-(4-chlorophenyl)-N-(3-methyl-3-azabicyclo[3.1.0]hexan-1-yl)phthalazin-1-amine], the IC50 in assay [1] was above 30 µM; in assay [2], 0.49 µM.

In the case of `Oc1cc(Cl)ccc1-c1nnc(NC23CCC(O)(CC2)C3)c2cnccc12` [Example 96, 4-((1-(4-chloro-2-hydroxyphenyl)pyrido[3,4-d]pyridazin-4-yl)amino)bicyclo[2.2.1]heptan-1-ol], the IC50 in assay [1] turned out to be 26 µM; in assay [2] it was 0.005 µM.

Take `COc1ccc(-c2nnc(N[C@@H]3C[C@@H](F)CN(C)C3)c3ccccc23)cc1` [Example 177, N-((3R,5R)-5-fluoro-1-methylpiperidin-3-yl)-4-(4-methoxyphenyl)phthalazin-1-amine]: the results for the IC50 in assay [1] and in assay [2] were above 30 µM and 0.053 µM, respectively.

As for `CN1CCCC(Nc2nnc(-c3ccc(Cl)cc3)c3ccccc23)C1=O` (stereo not shown) [Example 111, 3-((4-(4-chlorophenyl)phthalazin-1-yl)amino)-1-methylpiperidin-2-one], the figures for the IC50 in assay [1] and in assay [2] were above 30 µM and 3.78 µM, respectively.

Turning to `Cc1cc2c(-c3ccc(Cl)cc3)nnc(NC3CCCN(C)C3)c2cn1` (stereo not shown) [Example 80, 1-(4-chlorophenyl)-7-methyl-N-(1-methylpiperidin-3-yl)pyrido[3,4-d]pyridazin-4-amine], the IC50 is above 30 µM in assay [1] and 0.036 µM in assay [2].

As to `COc1ccc(-c2nnc(N[C@@H]3CCCN(C4CC4)C3)c3cnccc23)cc1` [Example 169, (R)—N-(1-cyclopropylpiperidin-3-yl)-1-(4-methoxyphenyl)pyrido[3,4-d]pyridazin-4-amine], the IC50 in assay [1] is above 30 µM; in assay [2] it was 0.007 µM.

`Clc1ccc(-c2nnc(NC3CCCN(Cc4ccccc4)C3)c3ccccc23)cc1` (stereo not shown) [Example 155, N-(1-benzylpiperidin-3-yl)-4-(4-chlorophenyl)phthalazin-1-amine]: the figures for the IC50 in assay [1] and in assay [2] were 23.4 µM and 0.066 µM, respectively.
